Earlier results in patent US10328004B2, “Sunscreen cosmetic” (SHISEIDO COMPANY, LTD., priority 2015, dated 2019).

Conditions: UVB wavelength range

SMILES: CCCCC(CC)COC(=O)c1ccc(Nc2nc(Nc3ccc(C(=O)OCC(CC)CCCC)cc3)nc(Nc3ccc(C(=O)OCC(CC)CCCC)cc3)n2)cc1 (stereo not shown) [Ethylhexyl triazone]
- maximum absorption wavelength: 312 nm
